Assay results reported in patent US7989640B2, “Sulfonylpyrrolidine modulators of androgen receptor function and method” (Bristol-Myers Squibb Company, priority 2004, dated 2011).
pKd: −log10 of the molar value.

How the values were obtained:
wild type AR (MDA 453) = conditions: read-out: Kd for [3H]-DHT; MDA 453 cells, Scatchard analysis
Method: For the whole-cell binding assay, human LNCaP cells (T877A mutant AR) or MDA 453 (wild type AR) in 96-well microtiter plates containing RPMI 1640 or DMEM supplemented with 10% charcoal stripped CA-FBS (Cocaleco Biologicals) respectively, were incubated at 37° C. to remove any endogenous ligand that might be complexed with the receptor in the cells.
For the saturation analysis, the difference between the total binding and the non-specific binding, was defined as specific binding. […] See e.g. D. Rodbard, Mathematics and statistics of ligand assays: an illustrated guide: In: J. Langon and J. J. Clapp, eds., Ligand Assay, Masson Publishing U.S.A., Inc., New York, pp. 45-99, (1981), the disclosure of which is herein incorporated by reference.
[formula] After correcting for non-specific binding, IC50 values were determined. […] C2C12 Mouse Myoblast Transactivation Assay

[1] = molecular target: endogenous glucocorticoid receptor (A549 cells) (Homo sapiens, UniProt P04150); conditions: concentration ≦10 μM; 10 ng/mL PMA stimulation; typical value of positive control
Method: The AP-1 assay is a cell-based luciferase reporter assay. A549 cells, which contain endogenous glucocorticoid receptor, were stably transfected with an AP-1 DNA binding site attached to the luciferase gene. Cells are then grown in RPMI+10% fetal calf serum (charcoal-treated)+Penicillin/Streptomycin with 0.5 mg/mL geneticin. Cells are plated the day before the assay at approximately 40000 cells/well. On assay day, the media is removed by aspiration and 20 μL assay buffer (RPMI without phenol red+10% FCS (charcoal-treated)+Pen/Strep) is added to each well. At this point either 20 μL assay buffer (control experiments), the compounds of the present invention (“test compounds”) (dissolved in DMSO and added at varying concentrations) or dexamethasome (100 nM in DMSO, positive control) are added to each well. The plates are then pre-incubated for 15 min at 37° C., followed by stimulation of the cells with 10 ng/mL PMA. The plates are then incubated for 7 h at 37° C. after which 40 μL luciferase substrate reagent is added to each well.

AR = molecular target: T1, AR (Rattus norvegicus, UniProt P15207)
T1 sequence (P15207 1-902): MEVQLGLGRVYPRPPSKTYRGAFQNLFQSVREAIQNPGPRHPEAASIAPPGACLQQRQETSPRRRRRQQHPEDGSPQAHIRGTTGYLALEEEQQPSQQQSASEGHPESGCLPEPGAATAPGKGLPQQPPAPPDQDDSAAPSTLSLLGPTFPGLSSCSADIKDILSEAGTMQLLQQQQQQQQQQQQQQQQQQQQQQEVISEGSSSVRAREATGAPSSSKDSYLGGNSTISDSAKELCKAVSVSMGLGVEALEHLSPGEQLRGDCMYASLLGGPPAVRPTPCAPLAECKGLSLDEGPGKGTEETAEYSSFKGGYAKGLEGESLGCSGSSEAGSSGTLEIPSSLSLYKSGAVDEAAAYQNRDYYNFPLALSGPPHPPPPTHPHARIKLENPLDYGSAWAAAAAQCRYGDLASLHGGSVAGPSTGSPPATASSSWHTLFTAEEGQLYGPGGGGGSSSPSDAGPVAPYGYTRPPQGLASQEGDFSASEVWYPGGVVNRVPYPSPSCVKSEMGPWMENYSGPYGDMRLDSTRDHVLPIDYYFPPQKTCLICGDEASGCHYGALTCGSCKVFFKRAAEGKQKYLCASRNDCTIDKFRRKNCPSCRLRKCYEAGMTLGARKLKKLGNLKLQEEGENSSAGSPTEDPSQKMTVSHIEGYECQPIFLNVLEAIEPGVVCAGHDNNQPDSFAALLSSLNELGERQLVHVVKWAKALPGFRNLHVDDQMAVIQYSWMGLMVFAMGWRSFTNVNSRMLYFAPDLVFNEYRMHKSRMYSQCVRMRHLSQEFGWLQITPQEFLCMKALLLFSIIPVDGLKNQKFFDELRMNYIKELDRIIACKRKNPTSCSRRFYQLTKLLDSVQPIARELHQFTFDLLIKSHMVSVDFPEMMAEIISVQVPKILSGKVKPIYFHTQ
From the text: The activity of compounds of the present invention as AR agonists was investigated in an immature male rat model, a recognized test of anabolic effects in muscle and sustaining effects in sex organs for a given compound, as described in L. G. Hershberger et al., Proc. Soc. […] Biol. Med., 83, 175 (1953); B. L. Beyler et al, “Methods for evaluating anabolic and catabolic agents in laboratory animals”, J. Amer. Med. Women's Ass., 23, 708 (1968); H. Fukuda et al., “Investigations of the levator ani muscle as an anabolic steroid assay”, Nago Dai. Yak. Ken. Nem. 14, 84 (1966) the disclosures of which are herein incorporated by reference.
The basis of this assay lies in the well-defined action of androgenic agents on the maintenance and growth of muscle tissues and sexual accessory organs in animals and man. […] J. Anat. […] Ital. Biol. Sper. […] II. […] Ital. Biol. Sper. 42, 1600 (1966); A. Boris et al., Steroids 15, 61 (1970). As described above, the effects of androgens on maintenance of male sexual accessory organs, such as the prostate and seminal vesicles, is well described. Castration results in rapid involution and atrophy of the prostate and seminal vesicles. This effect can be reversed by exogenous addition of androgens. […]

Sequence of endogenous glucocorticoid receptor (A549 cells) (P04150 whole entry): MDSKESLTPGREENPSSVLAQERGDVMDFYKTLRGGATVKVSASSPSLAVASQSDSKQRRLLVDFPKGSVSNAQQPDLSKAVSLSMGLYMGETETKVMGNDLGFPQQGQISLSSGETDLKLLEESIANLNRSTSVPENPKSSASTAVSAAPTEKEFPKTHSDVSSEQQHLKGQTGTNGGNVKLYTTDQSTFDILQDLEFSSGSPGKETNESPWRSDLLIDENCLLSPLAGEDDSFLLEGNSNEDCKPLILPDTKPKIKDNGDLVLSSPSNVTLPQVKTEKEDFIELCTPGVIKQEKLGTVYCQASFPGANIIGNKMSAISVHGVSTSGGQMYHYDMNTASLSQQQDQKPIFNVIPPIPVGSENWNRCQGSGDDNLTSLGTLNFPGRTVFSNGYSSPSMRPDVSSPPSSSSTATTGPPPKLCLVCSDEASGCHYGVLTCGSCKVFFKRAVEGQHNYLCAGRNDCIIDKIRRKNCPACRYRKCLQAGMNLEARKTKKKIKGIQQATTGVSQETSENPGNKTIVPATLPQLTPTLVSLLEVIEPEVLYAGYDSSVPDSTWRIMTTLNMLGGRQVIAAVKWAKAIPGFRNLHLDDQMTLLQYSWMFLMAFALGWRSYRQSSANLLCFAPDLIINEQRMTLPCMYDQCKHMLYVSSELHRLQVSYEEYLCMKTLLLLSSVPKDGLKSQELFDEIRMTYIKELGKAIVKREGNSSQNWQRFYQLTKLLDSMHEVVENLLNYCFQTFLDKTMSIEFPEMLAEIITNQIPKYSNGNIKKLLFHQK

For “tritiated dihydrotestosterone [[^3H]-DHT]”, the pKd (wild type AR (MDA 453)) was 9.15.

For C[C@@H]1C[C@H]2[C@@H]3CCC4=CC(=O)C=C[C@]4(C)[C@@]3(F)[C@@H](O)C[C@]2(C)[C@@]1(O)C(=O)CO [dexamethasone], the “suppression of activity (% inhibition of the reporter system vs buffer control)” value [1] was 65%.

For CCC(=O)O[C@H]1CC[C@H]2[C@@H]3CCC4=CC(=O)CC[C@]4(C)[C@H]3CC[C@]12C [TP, testosterone propionate], the “potency relative to free T” value (AR; TP versus free T) was 10-30 fold and the “EC50 (increase in organ weight)” value (AR; immature castrated rats, dosing for 3 days) was roughly 0.03 mg.
